Experimental data as given in publication PMC10321576, “Cyclic peptides target the aromatic cage of a PHD-finger reader domain to modulate epigenetic protein function” (Chemical Science, 2023).
Peptide text beside a SMILES is read from it.

Key:
KDM7B PHD-finger = biological target: T1, KDM7B PHD-finger (Homo sapiens, UniProt Q9UPP1); experiment: Protein NMR 1H-15N HSQC chemical shift perturbation; type: binding; conditions: Free PHD vs PHD+peptide
T1 construct: KDM7B 1-66; His-tag (C); made in house
T1 sequence (Q9UPP1 1-66 isoform Q9UPP1-2): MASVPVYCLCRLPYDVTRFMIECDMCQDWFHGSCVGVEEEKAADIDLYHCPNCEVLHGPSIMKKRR
Description: To better elucidate OC9 interactions at a single residue level, we conducted protein NMR studies using isotopically labelled PHD-finger.[48] Comparison of ^1H–^15N HSQC spectra for isotopically labelled apo and OC9-bound protein (Fig. 4a), independently assigned using ^13C,^15N 3D experiments (Fig. S21, NMR ESI ^†), identified 24 out of 66 protein residues with significant (standard deviation, s > 1) chemical shift perturbation (CSP, Δδ) of their backbone amides (Fig. 4b).
(a) ^1H–^15N HSQC of KDM7B PHD-finger in the apo (black) or bound forms with OC9 (purple, 1 : 1) or H3_1–21K4me3 (green, 3 : 1). (b) ^1H and ^15N chemical shift changes for apo vs. + OC9 were combined and weighted to give chemical shift perturbation (CSP) (Δδ) values. Standard deviation (σ) of Δδ are indicated (>1 pink, >2 purple). (c) TALOS+ predicts similar secondary structure elements in apo and OC9-bound solution protein complexes (light grey) to those found in PDB ID 3KV4 (dark grey). […] (e) Shielded ^1H-NMR signals centred around −0.5 ppm belonging to the OC9 V10 γ-methyl groups are observed in some OC9–PHD complexes, but not in apo protein, or complexes with OC9 V10A and OC9 V10DV. The V10^OC9 γ-methyl signals have NOE interactions (black semi-circles) with the W29^PHD indole, which itself is shielded upon binding of OC9 (indicated by ΔδH values).

KDM7C Dual - ZB = KDM7C Dual - ZB (Homo sapiens, UniProt O75151); experiment: ITC binding
Chain of KDM7C Dual - ZB (O75151 1-353 limits assumed): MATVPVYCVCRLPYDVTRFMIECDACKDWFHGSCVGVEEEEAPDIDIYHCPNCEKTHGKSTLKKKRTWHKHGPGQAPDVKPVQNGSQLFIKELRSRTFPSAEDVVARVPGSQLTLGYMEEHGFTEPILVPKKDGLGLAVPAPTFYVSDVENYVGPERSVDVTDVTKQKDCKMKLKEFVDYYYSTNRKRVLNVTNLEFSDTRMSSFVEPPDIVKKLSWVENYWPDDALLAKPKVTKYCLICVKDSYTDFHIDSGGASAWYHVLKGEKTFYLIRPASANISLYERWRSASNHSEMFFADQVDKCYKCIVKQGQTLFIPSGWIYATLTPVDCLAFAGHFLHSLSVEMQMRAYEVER
Experimental: (§1) Figure S10. ITC results: Tabulated values from 1:1 binding model and conditions
(§2) ITC buffer = 50 mM HEPES, 100 mM NaCl, pH 7.4, 0.2 µm filtered), at 25 °C. Dual = PHD+JmjC. HisTrx
(§3) = His 6+thioredoxin tag, GST = glutathione S -transferase tag, ZB = Z -basic tag. Syringe contained
(§4) peptide solution in buffer. Cell contained protein solution in buffer.
(§5) (1 picture or pasted object on this page, not shown here)

KDM7C PHD = biological target: T2, KDM7C PHD (Homo sapiens, UniProt O75151); experiment: ITC binding; conditions: for Kd: 1:1 binding model
T2 construct: KDM7C 1-67; made in house
T2 sequence (O75151 1-67): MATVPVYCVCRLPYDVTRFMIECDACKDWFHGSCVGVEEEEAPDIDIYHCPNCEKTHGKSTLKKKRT
Experimental: as §1, §2, §3, §4, §5

KDM7B Dual = biological target: T3, KDM7B Dual (Homo sapiens, UniProt Q9UPP1); experiment: ITC binding
T3 construct: Dual = PHD+JmjC; made in house
T3 sequence (Q9UPP1 37-483 limits assumed): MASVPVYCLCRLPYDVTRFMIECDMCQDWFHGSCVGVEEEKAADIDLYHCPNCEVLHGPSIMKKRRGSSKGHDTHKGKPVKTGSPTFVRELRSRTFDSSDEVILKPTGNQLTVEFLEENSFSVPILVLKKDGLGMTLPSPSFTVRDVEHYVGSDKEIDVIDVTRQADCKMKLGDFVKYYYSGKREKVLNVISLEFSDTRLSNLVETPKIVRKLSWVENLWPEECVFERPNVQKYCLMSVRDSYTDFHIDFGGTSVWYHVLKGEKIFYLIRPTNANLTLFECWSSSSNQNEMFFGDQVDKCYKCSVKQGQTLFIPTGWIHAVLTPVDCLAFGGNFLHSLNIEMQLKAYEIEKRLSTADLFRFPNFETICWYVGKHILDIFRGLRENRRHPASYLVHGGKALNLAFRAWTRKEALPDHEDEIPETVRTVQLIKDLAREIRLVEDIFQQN
Experimental: as §1, §2, §3, §4, §5

KDM7B PHD = biological target: T4, KDM7B PHD (Homo sapiens, UniProt Q9UPP1); experiment: ITC binding
T4 construct: KDM7B 1-66; made in house
T4 sequence (Q9UPP1 1-66 isoform Q9UPP1-2): T1 sequence (Q9UPP1 1-66 isoform Q9UPP1-2)
Experimental: as §1, §2, §3, §4, §5

[1] = 50 mM HEPES, 100 mM NaCl, pH 7.4, 25 °C, 1:1 binding model

## CC(C)C[C@@H]1NC(=O)[C@H](Cc2ccc(O)cc2)NC(=O)[C@H](Cc2ccc(O)cc2)NC(=O)CSC[C@@H](C(N)=O)NC(=O)[C@H]([C@@H](C)O)NC(=O)[C@H](CCCNC(=N)N)NC(=O)[C@H](Cc2ccccc2)NC(=O)[C@H](C(C)C)NC(=O)[C@H](CO)NC(=O)[C@@H]2CCCN2C(=O)[C@H](Cc2ccc(O)cc2)NC(=O)[C@@H]2CCCN2C(=O)[C@H](Cc2c[nH]cn2)NC(=O)[C@H]([C@@H](C)O)NC1=O [OC9] (HELM PEPTIDE1{[O=C(C[*:3])[*:2]].Y.Y.L.T.H.P.Y.P.S.V.F.R.T.C.[am]}$PEPTIDE1,PEPTIDE1,1:R3-15:R3$$$V2.0)
KDM7B PHD-finger; Trp side chain 1H-15N
  CSP Trp side chain: 0.6107
KDM7B PHD-finger; residue Ala2 amide 1H-15N
  CSP Ala2: 0.0035
KDM7B PHD-finger; residue Ala42 amide 1H-15N
  CSP Ala42: 0.4429
KDM7B PHD-finger; residue Ala43 amide 1H-15N
  CSP Ala43: 0.4556
KDM7B PHD-finger; residue Arg11 amide 1H-15N
  CSP Arg11: 0.0082
KDM7B PHD-finger; residue Arg18 amide 1H-15N
  CSP Arg18: 0.1460
KDM7B PHD-finger; residue Arg65 amide 1H-15N
  CSP Arg65: 0.0120
KDM7B PHD-finger; residue Arg66 amide 1H-15N
  CSP Arg66: 0.0057
KDM7B PHD-finger; residue Asn52 amide 1H-15N
  CSP Asn52: 0.0450
KDM7B PHD-finger; residue Asp15 amide 1H-15N
  CSP Asp15: 0.2640
KDM7B PHD-finger; residue Asp24 amide 1H-15N
  CSP Asp24: 0.0779
KDM7B PHD-finger; residue Asp28 amide 1H-15N
  CSP Asp28: 0.1748
KDM7B PHD-finger; residue Asp44 amide 1H-15N
  CSP Asp44: 0.1350
KDM7B PHD-finger; residue Asp46 amide 1H-15N
  CSP Asp46: 0.1724
KDM7B PHD-finger; residue Cys8 amide 1H-15N
  CSP Cys8: 0.2344
KDM7B PHD-finger; residue Cys10 amide 1H-15N
  CSP Cys10: 0.0550
KDM7B PHD-finger; residue Cys23 amide 1H-15N
  CSP Cys23: 0.1441
KDM7B PHD-finger; residue Cys26 amide 1H-15N
  CSP Cys26: 0.1542
KDM7B PHD-finger; residue Cys34 amide 1H-15N
  CSP Cys34: 0.0336
KDM7B PHD-finger; residue Cys50 amide 1H-15N
  CSP Cys50: 0.0486
KDM7B PHD-finger; residue Cys53 amide 1H-15N
  CSP Cys53: 0.0638
KDM7B PHD-finger; residue Gln27 amide 1H-15N
  CSP Gln27: 0.1502
KDM7B PHD-finger; residue Glu22 amide 1H-15N
  CSP Glu22: 0.1442
KDM7B PHD-finger; residue Glu38 amide 1H-15N
  CSP Glu38: 0.1925
KDM7B PHD-finger; residue Glu39 amide 1H-15N
  CSP Glu39: 0.2336
KDM7B PHD-finger; residue Glu40 amide 1H-15N
  CSP Glu40: 0.1019
KDM7B PHD-finger; residue Glu54 amide 1H-15N
  CSP Glu54: 0.0569
KDM7B PHD-finger; residue Gly32 amide 1H-15N
  CSP Gly32: 0.1798
KDM7B PHD-finger; residue Gly36 amide 1H-15N
  CSP Gly36: 0.1053
KDM7B PHD-finger; residue Gly58 amide 1H-15N
  CSP Gly58: 0.0436
KDM7B PHD-finger; residue His31 amide 1H-15N
  CSP His31: 0.2040
KDM7B PHD-finger; residue His49 amide 1H-15N
  CSP His49: 0.0826
KDM7B PHD-finger; residue His57 amide 1H-15N
  CSP His57: 0.0542
KDM7B PHD-finger; residue Ile21 amide 1H-15N
  CSP Ile21: 0.1523
KDM7B PHD-finger; residue Ile45 amide 1H-15N
  CSP Ile45: 0.1111
KDM7B PHD-finger; residue Ile61 amide 1H-15N
  CSP Ile61: 0.1500
KDM7B PHD-finger; residue Leu9 amide 1H-15N
  CSP Leu9: 0.2010
KDM7B PHD-finger; residue Leu12 amide 1H-15N
  CSP Leu12: 0.1857
KDM7B PHD-finger; residue Leu47 amide 1H-15N
  CSP Leu47: 0.0914
KDM7B PHD-finger; residue Leu56 amide 1H-15N
  CSP Leu56: 0.0558
KDM7B PHD-finger; residue Lys41 amide 1H-15N
  CSP Lys41: 0.1054
KDM7B PHD-finger; residue Lys63 amide 1H-15N
  CSP Lys63: 0.1309
KDM7B PHD-finger; residue Lys64 amide 1H-15N
  CSP Lys64: 0.0270
KDM7B PHD-finger; residue Met20 amide 1H-15N
  CSP Met20: 0.3618
KDM7B PHD-finger; residue Met25 amide 1H-15N
  CSP Met25: 0.6758
KDM7B PHD-finger; residue Met62 amide 1H-15N
  CSP Met62: 0.0955
KDM7B PHD-finger; residue Phe19 amide 1H-15N
  CSP Phe19: 0.3281
KDM7B PHD-finger; residue Phe30 amide 1H-15N
  CSP Phe30: 0.2483
KDM7B PHD-finger; residue Ser3 amide 1H-15N
  CSP Ser3: 0.0045
KDM7B PHD-finger; residue Ser33 amide 1H-15N
  CSP Ser33: 0.1228
KDM7B PHD-finger; residue Ser60 amide 1H-15N
  CSP Ser60: 0.0469
KDM7B PHD-finger; residue Thr17 amide 1H-15N
  CSP Thr17: 0.2705
KDM7B PHD-finger; residue Trp29 amide 1H-15N
  CSP Trp29: 0.3903
KDM7B PHD-finger; residue Tyr7 amide 1H-15N
  CSP Tyr7: 0.2658
KDM7B PHD-finger; residue Tyr14 amide 1H-15N
  CSP Tyr14: 0.3173
KDM7B PHD-finger; residue Tyr48 amide 1H-15N
  CSP Tyr48: 0.7926
KDM7B PHD-finger; residue Val4 amide 1H-15N
  CSP Val4: 0.0230
KDM7B PHD-finger; residue Val6 amide 1H-15N
  CSP Val6: 0.1610
KDM7B PHD-finger; residue Val16 amide 1H-15N
  CSP Val16: 0.3656
KDM7B PHD-finger; residue Val35 amide 1H-15N
  CSP Val35: 0.0666
KDM7B PHD-finger; residue Val37 amide 1H-15N
  CSP Val37: 0.0847
KDM7B PHD-finger; residue Val55 amide 1H-15N
  CSP Val55: 0.0250
KDM7C Dual - ZB; 25 °C
  ITC ΔH, KDM7C Dual - ZB: -65.7 ± 3.1 kJ mol -1
KDM7C Dual - ZB; read-out: ITC pKD, KDM7C Dual - ZB (converted)
  Kd: 10 nM
KDM7C Dual - ZB; stoichiometry
  ITC N, KDM7C Dual - ZB: 1.19 ± 0.01
KDM7C PHD; 50 mM HEPES, 100 mM NaCl, pH 7.4, 25 °C
  Kd: 9.56 nM
KDM7C PHD
  Kd: 10 ± 4 nM
KDM7C PHD; 25 °C
  ITC ΔH, KDM7C PHD: -62.0 ± 1.0 kJ mol -1
KDM7C PHD; stoichiometry
  ITC N, KDM7C PHD: 1.09 ± 0.01
KDM7B Dual; [1]
  Kd: 10.5 nM
KDM7B Dual; 25 °C
  ITC ΔH, KDM7B Dual: -46.0 ± 1.5 kJ mol -1
KDM7B Dual; stoichiometry
  ITC N, KDM7B Dual: 0.95 ± 0.02
KDM7B PHD; [1]
  Kd: 11.7 nM
KDM7B PHD; 25 °C
  ITC ΔH, KDM7B PHD: -46.2 ± 1.2 kJ mol -1
KDM7B PHD; stoichiometry
  ITC N, KDM7B PHD: 0.99 ± 0.01
KDM7B PHD; vs H3_1–21K4me3
  affinity of OC9 against the KDM7 PHD-fingers greater than the natural histone peptide ligand: at least 10 fold
